Data on 13 molecules can be found in US10351594B2, “Process for preparing compounds having triple activities of thrombolysis, antithrombosis, and radical scavenging” (Shanghai Lumosa Therapeutics Co., Ltd., priority 2013, dated 2019).

“Also recorded” adds a separate entry of the source. Marks after values point to notes of the source that are not given here.

The term EC50 denotes the concentration needed to bring the measured effect to its halfway point.

Experiment [1] can be described thus: Hydroxyl free radical scavenging activity (DMPO signal peak height). The experiment is classed as biochemical. Particulars: n = 6; read-out: EC50 of scavenging •OH. How it is done:
11.316 mg DMPO ([…], Sigma) was dissolved in 1 mL of pure water to obtain 0.1 M DMPO solution. […] FeSO4.7H2O was dissolved in 1 mL of pure water to obtain 10 mM solution. 30% medical H2O2 was diluted to 0.2%.
The first peak height of the OH signal of 2.5 μL FeSO4.7H2O solution+2.5 μL DMPO solution+5 μL H2O2 solution+5 μL water was measured and repeated for 6 times. This peak height defined as the known peak height of OH signal. The first peak height of the OH signal of 2.5 μL FeSO4.7H2O solution+2.5 μL DMPO solution+5 μL H2O2 solution+5 μL solution of one of the compounds 5Aa-p was measured and repeated for 6 times. This peak height defined as the residual peak height of the OH signal scavenged by one of the compounds 5Aa-p. Scavenging ratio=(known peak height of OH signal−residual peak height of OH signal of compounds 5Aa-p)/known peak height of OH signal

A short description of experiment [2]: Superoxide anionic radical scavenging activity (xanthine/xanthine oxidase, DMPO). It is filed as biochemical. To be noted: n = 6. How it is done: […] xanthine was dissolved in 1 mL of pure water to obtain 0.5 M xanthine solution (milk white color, largely insoluble). Commercially available raw solution of xanthine oxidase was diluted 10 folds to obtain solution of xanthine oxidase. Saturated DETAPAC solution was diluted 20 folds to obtain 0.9 mM solution. 11.316 mg DMPO was dissolved in 1 mL of pure water to obtain 0.1 M DMPO solution.
5 μL DMPO solution+5 μL DETAPAC solution+5 μL xanthine solution+5 μL xanthine oxidase solution+5 μL compounds 5Aa-p solution
The first peak height of superoxide anion signal of 5 μL DMPO solution+5 μL DETAPAC solution+5 μL xanthine solution+5 μL xanthine oxidase solution+5 μL water was measured and repeated for 6 times. This peak height defined as the known peak height of superoxide anion signal. The first peak height of superoxide anion signal of 5 μL DMPO solution+5 μL DETAPAC solution+5 μL xanthine solution+5 μL xanthine oxidase solution+5 μL solution of one of compounds 5Aa-p was measured and repeated for 6 times. This peak height defined as the residual peak height of the superoxide anion signal scavenged by one of the compounds 5Aa-p. Scavenging ratio=(known peak height of superoxide anion signal−residual peak height of superoxide anion signal of compounds 5Aa-p)/known peak height of superoxide anion signal

Experiment [3] relates to thrombus (rat arteriovenous bypass thrombolysis model). The experiment is described as follows: Thrombolytic activity via intravenous administration, rat arteriovenous bypass thrombolysis model. It is filed as in vivo, male SD rats. Particulars: for Weight reduction in thrombus: n = 10; for Thrombolytic activity, result in words: intravenous, 0.1 nmol/kg (5Ak also 0.01 and 0.001 nmol/kg), urokinase 20000 U/kg. The protocol: 200-220 g male SD rats were anesthetized with 20% urethane solution (6 mL/kg, ip). Anesthetized rats were fixed in a supine position, and the right common carotid artery was separated, clamped at the proximal end with an arterial clip, and penetrated with a suture at the proximal and distal ends, respectively. The suture at the distal end is clipped tightly by a hemostatic clamp at the skin/fur. Cannulation was performed at the distal end, the arterial clamp was loosened, and about 1 ml arterial blood was discharged into a 1 mL EP vial. 0.1 mL rat arterial blood was injected into a vertically fixed glass tube (15 mm in length, with an inner diameter of 2.5 mm and an outer diameter of 5.0 mm, sealed with a rubber stopper at the bottom), into which was immediately inserted a thrombus immobilization screw made of stainless steel. […] 40 min after the blood coagulated, the rubber stopper at the bottom of the glass tube was removed, the stem of the thrombus immobilization screw was fixed by forceps, and the thrombus-wrapped thrombus immobilization screw was carefully taken out from the glass tube and precisely weighted.
A bypass cannula was composed of 3 segments. The middle segment was a polyethylene tube having a length of 60 mm and an inner diameter of 3.5 mm. The segments on both ends were similar polyethylene tubes having a length of 100 mm, an inner diameter of 1 mm and an outer diameter of 2 mm, one end of which was pulled to form a tip, with an outer diameter of 1.0 mm (used in inserting into the rat carotid artery or vein), the other end of which was sheathed by a polyethylene tube having a length of 7 mm and an outer diameter of 3.5 mm (thickened, used in inserting into the polyethylene tube of the middle segment). The inner wall of the 3-segment cannula was entirely silylated. The thrombus-wrapped thrombus immobilization screw was placed into the polyethylene tube of the middle segment, and both ends of the tube sheath the thickened ends of two polyethylene tubes. The cannula was filled with a heparin solution in normal saline (50 IU/kg) through the tip end by using an injector and was ready for use.
The left external jugular vein of the rat was separated and penetrated with a suture at the proximal and distal ends respectively, and the distal end was ligated. An incision was carefully made on the exposed left external jugular vein, and the tip of the bypass cannula prepared as described above was inserted into the proximal end of the incision in the left external jugular vein, away from the stem of the thrombus immobilization screw in the middle segment of the bypass cannula (which accommodated the accurately weighed thrombus immobilization screw). A precise amount of heparin in saline (50 IU/kg) was injected through the tip at the other end by using an injector. At this moment, without removing the injector from the polyethylene tube, the tube between the injector and the polyethylene tube was clamped with a hemostatic clamp. The blood flow was stopped by clamping the proximal end of the right common carotid artery with an arterial clip, and an incision was cut carefully across the common carotid artery near the clip. The injector was pulled out of the polyethylene tube through the tip, and the tip of the polyethylene tube was then inserted into the proximal end of the artery incision. Both ends of the bypass cannula were fixed to the artery or vein with #4 sutures.
A scalp needle was used to pass saline solution, a urokinase in saline solution or varied concentrations of the compounds in saline solution through the middle section of the bypass cannula (which accommodated the accurately weighed thrombus immobilization screw) to a position at the proximal vein and away from the thrombus immobilization screw. The artery clip was then removed to allow blood to flow from the artery to the vein through the bypass cannula. A rat arteriovenous bypass thrombolysis model was thus established. […]

Where [4] appears, read: rat, intravenous injection, 5Aa-p 0.1 nmol/kg, 1 hour.

For “3S-6,7-dihydroxy-1,1-dimethyl-1,2,3,4-tetrahydro-isoquinoline-3-acyl-Lys(Pro-Ala-Ala) [Compound 5Aa]”, the EC50 in experiment [1] was determined as 459 ± 66 µM; in experiment [2] it was 477 ± 56 µM. For the same molecule, the “Weight reduction in thrombus” value in experiment [3] (setting [4]) is given as 19.35 ± 2.76^b mg. In addition, in experiment [3] (rat), the “Thrombolytic activity, result in words” value was “comparable to that of urokinase; also recorded: higher thrombolytic activity”.

In the case of “3S-6,7-dihydroxy-1,1-dimethyl-1,2,3,4-tetrahydro-isoquinoline-3-acyl-Lys(Pro-Ala-Gly) [Compound 5Ag]”, the EC50 in experiment [1] amounted to 422 ± 61 µM; in experiment [2], 467 ± 94 µM. The “Weight reduction in thrombus” value in experiment [3] (setting [4]) is listed as 18.98 ± 2.14^b mg. The “Thrombolytic activity, result in words” value in experiment [3] (rat) is reported as “comparable to that of urokinase; also recorded: higher thrombolytic activity”.

Take “3S-6,7-dihydroxy-1,1-dimethyl-1,2,3,4-tetrahydro-isoquinoline-3-acyl-Lys(Pro-Ala-Val) [Compound 5Ab]”: the EC50 turned out to be 471 ± 71 µM in experiment [1] and 471 ± 34 µM in experiment [2]. Besides, the “Weight reduction in thrombus” value in experiment [3] (setting [4]) is recorded as 17.12 ± 1.64^a mg.

`C[C@H](NC(=O)[C@@H]1CCCN1)C(=O)N[C@@H](Cc1c[nH]c2ccccc12)C(=O)NCCCC[C@H](NC(=O)[C@@H]1Cc2cc(O)c(O)cc2C(C)(C)N1)C(=O)O` [Compound 5Ac, 3S-6,7-dihydroxy-1,1-dimethyl-1,2,3,4-tetrahydro-isoquinoline-3-acyl-Lys(Pro-Ala-Trp)]: the EC50 worked out at 378 ± 85 µM in experiment [1] and 366 ± 71 µM in experiment [2]. Also, the “Weight reduction in thrombus” value in experiment [3] (setting [4]) is 16.23 ± 2.81^a mg.

For the molecule `C[C@H](NC(=O)[C@@H]1CCCN1)C(=O)N[C@@H](Cc1ccc(O)cc1)C(=O)NCCCC[C@H](NC(=O)[C@@H]1Cc2cc(O)c(O)cc2C(C)(C)N1)C(=O)O` [Compound 5Ad, 3S-6,7-dihydroxy-1,1-dimethyl-1,2,3,4-tetrahydro-isoquinoline-3-acyl-Lys(Pro-Ala-Tyr)], the half-maximal effective concentration (EC50) in experiment [1] was 369 ± 32 µM; in experiment [2], 354 ± 71 µM. Further, the “Weight reduction in thrombus” value in experiment [3] (setting [4]) is 18.11 ± 2.48^b mg. Further, the “Thrombolytic activity, result in words” value in experiment [3] (rat) is reported as “higher thrombolytic activity”.

Regarding `C[C@H](NC(=O)[C@@H]1CCCN1)C(=O)N1CCC[C@H]1C(=O)NCCCC[C@H](NC(=O)[C@@H]1Cc2cc(O)c(O)cc2C(C)(C)N1)C(=O)O` [Compound 5Ae, 3S-6,7-dihydroxy-1,1-dimethyl-1,2,3,4-tetrahydro-isoquinoline-3-acyl-Lys(Pro-Ala-Pro)], the values for the EC50 in experiment [1] and in experiment [2] were 466 ± 47 µM and 481 ± 45 µM, respectively. For the same molecule, the “Weight reduction in thrombus” value in experiment [3] (setting [4]) is 13.63 ± 1.92^a mg.

Take `C[C@H](NC(=O)[C@@H]1CCCN1)C(=O)N[C@@H](Cc1ccccc1)C(=O)NCCCC[C@H](NC(=O)[C@@H]1Cc2cc(O)c(O)cc2C(C)(C)N1)C(=O)O` [Compound 5Af, 3S-6,7-dihydroxy-1,1-dimethyl-1,2,3,4-tetrahydro-isoquinoline-3-acyl-Lys(Pro-Ala-Phe)]: the EC50 in experiment [1] came out at 544 ± 43 µM; in experiment [2], 485 ± 31 µM. Besides, in experiment [3] (setting [4]), the “Weight reduction in thrombus” value was 17.92 ± 1.69^b mg. Besides, the “Thrombolytic activity, result in words” value in experiment [3] (rat) is recorded as “comparable to that of urokinase; also recorded: higher thrombolytic activity”.

Turning to `C[C@H](NC(=O)[C@@H]1CCCN1)C(=O)N[C@@H](CO)C(=O)NCCCC[C@H](NC(=O)[C@@H]1Cc2cc(O)c(O)cc2C(C)(C)N1)C(=O)O` [Compound 5Ah, 3S-6,7-dihydroxy-1,1-dimethyl-1,2,3,4-tetrahydro-isoquinoline-3-acyl-Lys(Pro-Ala-Ser)], the EC50 amounted to 413 ± 73 µM in experiment [1] and 401 ± 72 µM in experiment [2]. Besides, the “Weight reduction in thrombus” value in experiment [3] (setting [4]) is on record as 17.10 ± 1.79^a mg.

Turning to `CC[C@H](C)[C@H](NC(=O)[C@H](C)NC(=O)[C@@H]1CCCN1)C(=O)NCCCC[C@H](NC(=O)[C@@H]1Cc2cc(O)c(O)cc2C(C)(C)N1)C(=O)O` [Compound 5Ai, 3S-6,7-dihydroxy-1,1-dimethyl-1,2,3,4-tetrahydro-isoquinoline-3-acyl-Lys(Pro-Ala-Ile)], the half-maximal effective concentration (EC50) turned out to be 495 ± 61 µM in experiment [1] and 452 ± 64 µM in experiment [2]. Moreover, the “Weight reduction in thrombus” value in experiment [3] (setting [4]) is 16.00 ± 2.03^a mg.

Take `C[C@H](NC(=O)[C@@H]1CCCN1)C(=O)N[C@H](C(=O)NCCCC[C@H](NC(=O)[C@@H]1Cc2cc(O)c(O)cc2C(C)(C)N1)C(=O)O)[C@@H](C)O` [Compound 5Aj, 3S-6,7-dihydroxy-1,1-dimethyl-1,2,3,4-tetrahydro-isoquinoline-3-acyl-Lys(Pro-Ala-Thr)]: the EC50 in experiment [1] came out at 416 ± 28 µM; in experiment [2], 417 ± 95 µM. Besides, the “Weight reduction in thrombus” value in experiment [3] (setting [4]) was 15.23 ± 2.45^a mg.

Take `C[C@H](NC(=O)[C@@H]1CCCN1)C(=O)N[C@@H](CCCCN)C(=O)NCCCC[C@H](NC(=O)[C@@H]1Cc2cc(O)c(O)cc2C(C)(C)N1)C(=O)O` [Compound 5Ak, 3S-6,7-dihydroxy-1,1-dimethyl-1,2,3,4-tetrahydro-isoquinoline-3-acyl-Lys(Pro-Ala-Lys)]: the half-maximal effective concentration (EC50) in experiment [1] was 422 ± 82 µM; in experiment [2] it was 363 ± 94 µM. For the same molecule, the “Weight reduction in thrombus” value was 11.73 ± 2.15 ^c mg in experiment [3] (Table 2, 5Ak 0.001 nmol/kg i.v.); 14.62 ± 2.46 b mg in experiment [3] (Table 2, 5Ak 0.01 nmol/kg i.v.); 21.61 ± 4.62^a mg in experiment [3] (Table 2, 5Ak 0.1 nmol/kg i.v.); 19.38 ± 2.81^b mg in experiment [3] (setting [4]). For the same molecule, the “Thrombolytic activity, result in words” value in experiment [3] (rat) was “comparable to that of urokinase; also recorded: higher thrombolytic activity; also recorded: highest thrombolytic activity; also recorded: obvious dose-effect relationship”.

`CC(C)C[C@H](NC(=O)[C@H](C)NC(=O)[C@@H]1CCCN1)C(=O)NCCCC[C@H](NC(=O)[C@@H]1Cc2cc(O)c(O)cc2C(C)(C)N1)C(=O)O` [Compound 5Al, 3S-6,7-dihydroxy-1,1-dimethyl-1,2,3,4-tetrahydro-isoquinoline-3-acyl-Lys(Pro-Ala-Leu)]: the EC50 in experiment [1] came out at 489 ± 32 µM; in experiment [2], 414 ± 97 µM. Also, in experiment [3] (setting [4]), the “Weight reduction in thrombus” value is on record as 14.65 ± 2.86^a mg.

Take `C[C@H](NC(=O)[C@@H]1CCCN1)C(=O)N[C@@H](CCC(N)=O)C(=O)NCCCC[C@H](NC(=O)[C@@H]1Cc2cc(O)c(O)cc2C(C)(C)N1)C(=O)O` [Compound 5Am, 3S-6,7-dihydroxy-1,1-dimethyl-1,2,3,4-tetrahydro-isoquinoline-3-acyl-Lys(Pro-Ala-Gln)]: the EC50 in experiment [1] turned out to be 466 ± 77 µM; in experiment [2] it was 371 ± 45 µM. Besides, in experiment [3] (setting [4]), the “Weight reduction in thrombus” value is 16.65 ± 2.52^a mg.
